Reference: paper PMC10504751, “Chalcone/1,3,4-Oxadiazole/Benzimidazole hybrids as novel anti-proliferative agents inducing apoptosis and inhibiting EGFR & BRAFV^600E” (BMC Chemistry, 2023)

Assays:
Experiment in all cases: NCI one-dose SRB anti-proliferative screen
Assay type in all cases: cell-based
786-0 = conditions: Homo sapiens; 786-0, Renal cancer; NCI one dose; read-out: Cell growth inhibition %
Outline: (§1)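 Read-out: sulforhodamine B protein stain measured colorimetrically after exposure of the cells to test compound at 10 µM. This line formed one member of a 60-line panel spanning lung, leukaemia, melanoma, colon, renal, CNS, prostate, breast and ovarian origins.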

A498 = conditions: Homo sapiens; A498, Renal cancer; NCI one dose; read-out: Cell growth inhibition %
Outline: as §1

ACHN = conditions: Homo sapiens; ACHN, Renal cancer; NCI one dose; read-out: Cell growth inhibition %
Outline: as §1

CAKI-1 = conditions: Homo sapiens; CAKI-1, Renal cancer; NCI one dose; read-out: Cell growth inhibition %
Outline: as §1

DU-145 = conditions: Homo sapiens; DU-145, Prostate Cancer; NCI one dose; read-out: Cell growth inhibition %
Outline: as §1

HCC-2998 = conditions: Homo sapiens; HCC-2998, Colon cancer; NCI one dose; read-out: Cell growth inhibition %
Outline: as §1

HL-60(TB) = conditions: Homo sapiens; HL-60(TB), Leukemia; NCI one dose; read-out: Cell growth inhibition %
Outline: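 Activity reflects a single-point exposure at 10 µM, with cell mass determined by a sulforhodamine B dye assay.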

HOP-92 = conditions: Homo sapiens; HOP-92, Non-Small Cell Lung Cancer; NCI one dose; read-out: Cell growth inhibition %
Outline: as §1

HT29 = conditions: Homo sapiens, HT-29; HT29, Colon cancer; NCI one dose; read-out: Cell growth inhibition %
Outline: as §1

KM12 = conditions: Homo sapiens; KM12, Colon cancer; NCI one dose; read-out: Cell growth inhibition %
Outline: as §1

LOX IMVI = conditions: Homo sapiens, Melanoma, NCI one dose, read-out: Cell growth inhibition %
Outline: as §1

MDA-MB-231/ATCC = conditions: Homo sapiens; MDA-MB-231/ATCC, Breast cancer; NCI one dose; read-out: Cell growth inhibition %
Outline: as §1

MDA-MB-468 = conditions: Homo sapiens; MDA-MB-468, Breast cancer; NCI one dose; read-out: Cell growth inhibition %
Outline: as §1

NCI-H226 = conditions: Homo sapiens; NCI-H226, Non-Small Cell Lung Cancer; NCI one dose; read-out: Cell growth inhibition %
Outline: as §1

NCI-H23 = conditions: Homo sapiens; NCI-H23, Non-Small Cell Lung Cancer; NCI one dose; read-out: Cell growth inhibition %
Outline: as §1

NCI-H322M = conditions: Homo sapiens; NCI-H322M, Non-Small Cell Lung Cancer; NCI one dose; read-out: Cell growth inhibition %
Outline: as §1

NCI-H460 = conditions: Homo sapiens; NCI-H460, Non-Small Cell Lung Cancer; NCI one dose; read-out: Cell growth inhibition %
Outline: as §1

NCI/ADR-RES = conditions: Homo sapiens; NCI/ADR-RES, Ovarian Cancer; NCI one dose; read-out: Cell growth inhibition %
Outline: as §1

OVCAR-3 = conditions: Homo sapiens; OVCAR-3, Ovarian Cancer; NCI one dose; read-out: Cell growth inhibition %
Outline: as §1

OVCAR-4 = conditions: Homo sapiens; OVCAR-4, Ovarian Cancer; NCI one dose; read-out: Cell growth inhibition %
Outline: as §1

SF-268 = conditions: Homo sapiens; SF-268, CNS Cancer; NCI one dose; read-out: Cell growth inhibition %
Outline: as §1

SF-295 = conditions: Homo sapiens; SF-295, CNS Cancer; NCI one dose; read-out: Cell growth inhibition %
Outline: as §1

SF-539 = conditions: Homo sapiens; SF-539, CNS Cancer; NCI one dose; read-out: Cell growth inhibition %
Outline: as §1

SK-MEL-5 = conditions: Homo sapiens; SK-MEL-5, Melanoma; NCI one dose; read-out: Cell growth inhibition %
Outline: as §1

SNB-19 = conditions: Homo sapiens; SNB-19, CNS Cancer; NCI one dose; read-out: Cell growth inhibition %
Outline: as §1

SR = conditions: Homo sapiens; SR, Leukemia; NCI one dose; read-out: Cell growth inhibition %
Outline: as §1

SW-620 = conditions: Homo sapiens; SW-620, Colon cancer; NCI one dose; read-out: Cell growth inhibition %
Outline: as §1

TK-10 = conditions: Homo sapiens; TK-10, Renal cancer; NCI one dose; read-out: Cell growth inhibition %
Outline: as §1

U251 = conditions: Homo sapiens, U-251; U251, CNS Cancer; NCI one dose; read-out: Cell growth inhibition %
Outline: as §1

Measured: inhibition at 10 µM

COc1ccc(-c2nc3cc(-c4nnc(SCC(=O)Nc5ccc(C(=O)/C=C/c6cc(OC)c(OC)c(OC)c6)cc5)o4)ccc3[nH]2)cc1 [Compound 7o, 2-{5-[2-(4-Methoxyphenyl)-1 H-benzo[d]imidazol-5-yl]-1,3,4-oxadiazol-2-ylthio}-N-{4-[(E)-3-(3,4,5-trimethoxyphenyl)acryloyl]phenyl}acetamide]
3.23%: U251
15.2%: SR
1.83%: CAKI-1
0.99%: SK-MEL-5
22.9%: LOX IMVI
2.1%: SF-539
2.19%: NCI-H226
2.18%: MDA-MB-231/ATCC
0%: all other assays above
